# Tested on: mouse cortical cultures
# Assay: RNA-seq differential expression (DESeq) against matched vehicle
# Assay type: cell-based
# Parameters: key to MeanFenamidone Bcl11b / MeanFenamidone Slc12a4 / MeanFenamidone Abca1 / MeanFenamidone Hmox1 / MeanFenamidone Il1rap / MeanFenamidone Cyba / MeanFenamidone Narf / MeanFenamidone Bnip3 / MeanFenamidone Amotl2 / MeanFenamidone Gad2 / MeanFenamidone Vsnl1 / MeanFenamidone Fam178a: DESeq mean of counts over RefSeq exons
# Description: Figure 4 Cluster 2 chemicals alter expression of a common set of genes. […] RNA-seq was performed in quadruplicate after treating cortical cultures with fenamidone (10 μM) or pyraclostrobin (0.1 μM) for 24 h (n=3 biological replicates) and compared with matched vehicle controls using DESeq to detect differentially expressed genes, listed in Supplementary Data 4.
# Cultures were treated with the non-cytotoxic dose of each chemical, by exchanging half of the original medium with chemicals at 2 × concentration in prewarmed feeding medium, on DIV 7 for 24 h in 12-well plates at a density of 5 × 10^5 cells per well. RNA was isolated using RNeasy plus mini kit (Cat. #74134, Qiagen). […]. Samples were further assessed for quality using either an Agilent Bioanalyzer 2100 or TapeStation 2200 to obtain a RIN. RIN values exceeding 7 were used for sequencing. RNA samples were used to generate and barcode complementary DNA libraries using the TruSeq RNA Library Preparation Kit at the UNC High Throughput Sequencing Facility. Pools of 24 multiplexed samples were sequenced per lane on an Illumina HiSeq 2500 using 50-bp paired-end reads.
# RNA-seq reads were filtered using TagDust and aligned to the reference mouse genome (mm9) with TopHat using default parameters. Reads aligning to ribosomal RNA genes were removed. Transcript abundance was estimated by computing Reads per kilobase per million mapped reads (RPKM) using RefSeq gene models aggregated by gene symbol. For differential expression analyses, raw counts over RefSeq exons were used, and then were compared across samples using DESeq[62].
smiles,measurement,setting,value
CSC1=N[C@@](C)(c2ccccc2)C(=O)N1Nc1ccccc1 [fenamidone],MeanFenamidone Kirrel,"gene Kirrel, DESeq mean, 4 reps",376.176
same,log2FoldChange Kirrel,"gene Kirrel, vs vehicle, 4 reps",1.966
same,MeanFenamidone Klf3,"gene Klf3, DESeq mean, 4 reps",165.964
same,log2FoldChange Klf3,"gene Klf3, vs vehicle, 4 reps",1.6001
same,MeanFenamidone Lama5,"gene Lama5, DESeq mean, 4 reps",696.831
same,log2FoldChange Lama5,"gene Lama5, vs vehicle, 4 reps",3.008
same,MeanFenamidone Lamc1,"gene Lamc1, DESeq mean, 4 reps",1262.75
same,log2FoldChange Lamc1,"gene Lamc1, vs vehicle, 4 reps",1.942
same,MeanFenamidone Lats2,"gene Lats2, DESeq mean, 4 reps",789.339
same,log2FoldChange Lats2,"gene Lats2, vs vehicle, 4 reps",2.05
same,MeanFenamidone,gene Lgals1,315.526
same,log2FoldChange,gene Lgals1,2.643
same,MeanFenamidone Lgals3,"gene Lgals3, DESeq mean, 4 reps",148.009
same,log2FoldChange Lgals3,"gene Lgals3, vs vehicle, 4 reps",3.47
same,MeanFenamidone Lhfp,"gene Lhfp, DESeq mean, 4 reps",460.237
same,log2FoldChange Lhfp,"gene Lhfp, vs vehicle, 4 reps",1.564
same,MeanFenamidone,gene Lhx6,36.2637
same,log2FoldChange,gene Lhx6,-1.466
same,MeanFenamidone Lif,"gene Lif, DESeq mean, 4 reps",71.2282
same,log2FoldChange Lif,"gene Lif, vs vehicle, 4 reps",2.278
same,MeanFenamidone Lima1,"gene Lima1, DESeq mean, 4 reps",304.711
same,log2FoldChange Lima1,"gene Lima1, vs vehicle, 4 reps",2.122
same,MeanFenamidone Lipa,"gene Lipa, DESeq mean, 4 reps",195.186
same,log2FoldChange Lipa,"gene Lipa, vs vehicle, 4 reps",1.701
same,MeanFenamidone,gene Lpp,386.544
same,log2FoldChange,gene Lpp,2.227
same,MeanFenamidone,gene Lrig1,287.461
same,log2FoldChange,gene Lrig1,1.313
same,MeanFenamidone Lrp2,"gene Lrp2, DESeq mean, 4 reps",218.41
same,log2FoldChange Lrp2,"gene Lrp2, vs vehicle, 4 reps",3.259
same,MeanFenamidone Lrp5,"gene Lrp5, DESeq mean, 4 reps",104.9
same,log2FoldChange Lrp5,"gene Lrp5, vs vehicle, 4 reps",2.141
same,MeanFenamidone Lrrk1,"gene Lrrk1, DESeq mean, 4 reps",150.568
same,log2FoldChange Lrrk1,"gene Lrrk1, vs vehicle, 4 reps",2.538
same,MeanFenamidone Lrrk2,"gene Lrrk2, DESeq mean, 4 reps",55.3056
same,log2FoldChange Lrrk2,"gene Lrrk2, vs vehicle, 4 reps",2.7898
same,MeanFenamidone Lsm11,"gene Lsm11, DESeq mean, 4 reps",253.873
same,log2FoldChange Lsm11,"gene Lsm11, vs vehicle, 4 reps",-1.609
same,MeanFenamidone Lzts1,"gene Lzts1, DESeq mean, 4 reps",28.4823
same,log2FoldChange Lzts1,"gene Lzts1, vs vehicle, 4 reps",-2.067
same,MeanFenamidone Maff,"gene Maff, DESeq mean, 4 reps",142.888
same,log2FoldChange Maff,"gene Maff, vs vehicle, 4 reps",2.5091
same,MeanFenamidone,gene Man2b1,147.398
same,log2FoldChange,gene Man2b1,1.707
same,MeanFenamidone,gene Map9,691.478
same,log2FoldChange,gene Map9,-1.0525
same,MeanFenamidone Mapkapk3,"gene Mapkapk3, DESeq mean, 4 reps",109.426
same,log2FoldChange Mapkapk3,"gene Mapkapk3, vs vehicle, 4 reps",2.329
same,MeanFenamidone Mdk,"gene Mdk, DESeq mean, 4 reps",140.699
same,log2FoldChange Mdk,"gene Mdk, vs vehicle, 4 reps",2.08
same,MeanFenamidone,gene Mdm2,455.963
same,log2FoldChange,gene Mdm2,1.1
same,MeanFenamidone Mllt11,"gene Mllt11, DESeq mean, 4 reps",1306.3
same,log2FoldChange Mllt11,"gene Mllt11, vs vehicle, 4 reps",-1.396
same,MeanFenamidone Mpp6,"gene Mpp6, DESeq mean, 4 reps",437.651
same,log2FoldChange Mpp6,"gene Mpp6, vs vehicle, 4 reps",1.381
same,MeanFenamidone Msn,"gene Msn, DESeq mean, 4 reps",1825.06
same,log2FoldChange Msn,"gene Msn, vs vehicle, 4 reps",2.348
same,MeanFenamidone Mturn,"gene Mturn, DESeq mean, 4 reps",252.358
same,log2FoldChange Mturn,"gene Mturn, vs vehicle, 4 reps",-1.427
same,MeanFenamidone Myh9,"gene Myh9, DESeq mean, 4 reps",944.67
same,log2FoldChange Myh9,"gene Myh9, vs vehicle, 4 reps",2.571
same,MeanFenamidone,gene Myl9,343.782
same,log2FoldChange,gene Myl9,2.6473
same,MeanFenamidone Myl12a,"gene Myl12a, DESeq mean, 4 reps",537.985
same,log2FoldChange Myl12a,"gene Myl12a, vs vehicle, 4 reps",2.298
same,MeanFenamidone,gene Myo9b,246.577
same,log2FoldChange,gene Myo9b,1.347
same,MeanFenamidone Myof,"gene Myof, DESeq mean, 4 reps",104.99
same,log2FoldChange Myof,"gene Myof, vs vehicle, 4 reps",3.761
same,MeanFenamidone Nap1l2,"gene Nap1l2, DESeq mean, 4 reps",81.273
same,log2FoldChange Nap1l2,"gene Nap1l2, vs vehicle, 4 reps",-1.959
same,MeanFenamidone Nap1l3,"gene Nap1l3, DESeq mean, 4 reps",110.395
same,log2FoldChange Nap1l3,"gene Nap1l3, vs vehicle, 4 reps",-1.464
same,MeanFenamidone Narf,"gene Narf, DESeq mean, 4 reps",102.622
same,log2FoldChange Narf,"gene Narf, vs vehicle, 4 reps",-2.14
same,MeanFenamidone,gene Ndrg4,999.172
same,log2FoldChange,gene Ndrg4,-1.28
same,MeanFenamidone Nefl,"gene Nefl, DESeq mean, 4 reps",284.238
same,log2FoldChange Nefl,"gene Nefl, vs vehicle, 4 reps",-1.45
same,MeanFenamidone,gene Neurl1a,95.3821
same,log2FoldChange,gene Neurl1a,-1.321
same,MeanFenamidone Notch1,"gene Notch1, DESeq mean, 4 reps",316.63
same,log2FoldChange Notch1,"gene Notch1, vs vehicle, 4 reps",1.887
same,MeanFenamidone Notch3,"gene Notch3, DESeq mean, 4 reps",258.391
same,log2FoldChange Notch3,"gene Notch3, vs vehicle, 4 reps",2.018
same,MeanFenamidone Npnt,"gene Npnt, DESeq mean, 4 reps",335.437
same,log2FoldChange Npnt,"gene Npnt, vs vehicle, 4 reps",1.337
same,MeanFenamidone,gene Npr2,171.686
same,log2FoldChange,gene Npr2,1.617
same,MeanFenamidone,gene Nrep,2228.26
same,log2FoldChange,gene Nrep,-1.081
same,MeanFenamidone,gene Nrg1,57.9878
same,log2FoldChange,gene Nrg1,2.155
same,MeanFenamidone,gene Nrxn3,100.585
same,log2FoldChange,gene Nrxn3,-1.713
same,MeanFenamidone,gene Nsmf,509.681
same,log2FoldChange,gene Nsmf,-1.17
same,MeanFenamidone Nuak2,"gene Nuak2, DESeq mean, 4 reps",199.356
same,log2FoldChange Nuak2,"gene Nuak2, vs vehicle, 4 reps",1.954
same,MeanFenamidone,gene Nup93,78.3583
same,log2FoldChange,gene Nup93,1.518
same,MeanFenamidone Nxph1,"gene Nxph1, DESeq mean, 4 reps",23.0758
same,log2FoldChange Nxph1,"gene Nxph1, vs vehicle, 4 reps",-2.821
same,MeanFenamidone Nxph2,"gene Nxph2, DESeq mean, 4 reps",12.3649
same,log2FoldChange Nxph2,"gene Nxph2, vs vehicle, 4 reps",-2.898
same,MeanFenamidone P2ry2,"gene P2ry2, DESeq mean, 4 reps",92.6995
same,log2FoldChange P2ry2,"gene P2ry2, vs vehicle, 4 reps",2.7714
same,MeanFenamidone,gene Parp3,104.686
same,log2FoldChange,gene Parp3,1.933
same,MeanFenamidone,gene Pcdh9,219.607
same,log2FoldChange,gene Pcdh9,-1.474
same,MeanFenamidone,gene Pcdh17,217.631
same,log2FoldChange,gene Pcdh17,-1.1203
same,MeanFenamidone Pcdh19,"gene Pcdh19, DESeq mean, 4 reps",219.013
same,log2FoldChange Pcdh19,"gene Pcdh19, vs vehicle, 4 reps",-1.519
same,MeanFenamidone,gene Pcdhb9,20.2277
same,log2FoldChange,gene Pcdhb9,-1.874
same,MeanFenamidone Pcyt1b,"gene Pcyt1b, DESeq mean, 4 reps",228.459
same,log2FoldChange Pcyt1b,"gene Pcyt1b, vs vehicle, 4 reps",-1.515
same,MeanFenamidone Pdlim5,"gene Pdlim5, DESeq mean, 4 reps",799.854
same,log2FoldChange Pdlim5,"gene Pdlim5, vs vehicle, 4 reps",2.0349
same,MeanFenamidone Pgm2l1,"gene Pgm2l1, DESeq mean, 4 reps",972.539
same,log2FoldChange Pgm2l1,"gene Pgm2l1, vs vehicle, 4 reps",-1.841
same,MeanFenamidone Phlda3,"gene Phlda3, DESeq mean, 4 reps",537.092
same,log2FoldChange Phlda3,"gene Phlda3, vs vehicle, 4 reps",1.998
same,MeanFenamidone Phldb2,"gene Phldb2, DESeq mean, 4 reps",121.953
same,log2FoldChange Phldb2,"gene Phldb2, vs vehicle, 4 reps",2.252
same,MeanFenamidone,gene Phyh,85.5792
same,log2FoldChange,gene Phyh,1.618
same,MeanFenamidone Piezo1,"gene Piezo1, DESeq mean, 4 reps",449.998
same,log2FoldChange Piezo1,"gene Piezo1, vs vehicle, 4 reps",2.353
same,MeanFenamidone Plcb3,"gene Plcb3, DESeq mean, 4 reps",85.3651
same,log2FoldChange Plcb3,"gene Plcb3, vs vehicle, 4 reps",2.324
same,MeanFenamidone,gene Plec,505.373
same,log2FoldChange,gene Plec,1.462
same,MeanFenamidone Plekha7,"gene Plekha7, DESeq mean, 4 reps",128.547
same,log2FoldChange Plekha7,"gene Plekha7, vs vehicle, 4 reps",1.951
same,MeanFenamidone Plekhg2,"gene Plekhg2, DESeq mean, 4 reps",436.894
same,log2FoldChange Plekhg2,"gene Plekhg2, vs vehicle, 4 reps",2.353
same,MeanFenamidone Plxnb2,"gene Plxnb2, DESeq mean, 4 reps",1959.53
same,log2FoldChange Plxnb2,"gene Plxnb2, vs vehicle, 4 reps",1.762
same,MeanFenamidone,gene Pnma2,202.102
same,log2FoldChange,gene Pnma2,-1.217
same,MeanFenamidone,gene Ppard,113.665
same,log2FoldChange,gene Ppard,1.493
same,MeanFenamidone Ppm1e,"gene Ppm1e, DESeq mean, 4 reps",435.513
same,log2FoldChange Ppm1e,"gene Ppm1e, vs vehicle, 4 reps",-1.5474
same,MeanFenamidone Pqlc3,"gene Pqlc3, DESeq mean, 4 reps",109.637
same,log2FoldChange Pqlc3,"gene Pqlc3, vs vehicle, 4 reps",2.1113
same,MeanFenamidone Prkcg,"gene Prkcg, DESeq mean, 4 reps",26.526
same,log2FoldChange Prkcg,"gene Prkcg, vs vehicle, 4 reps",-1.929
same,MeanFenamidone,gene Prkcz,141.39
same,log2FoldChange,gene Prkcz,-1.24
same,MeanFenamidone,gene Prrt2,169.168
same,log2FoldChange,gene Prrt2,-1.281
same,MeanFenamidone,gene Prss23,845.081
